Test results as given in US9585854B2, “N-acetyl-L-cysteine for use in in vitro fertilization” (IASOMAI AB, priority 2012, dated 2017).
Read-outs that look alike come from different tables or passages of the source. Where a SMILES comes first, the peptide text is derived from it. Bridges are numbered along the chain shown (N, C = ends). [ ]: non-standard residue; d: D form. Orn = NCCC[C@H](N)C(=O)O; Mpa = O=C(O)CCS

Columns and labels:
[1] = system: pregnancy rates after IVF-ET; details: cited from earlier work
[2] = system: oxytocin antagonist; implantation after IVF; details: cited from earlier work
[3] = system: embryo implantation; assay: embryo implantation in oxytocin-treated mice; type: in vivo; details: mice given oxytocin
From the text: Indeed, in mice, NAC was confirmed to support embryo implantation. In the animal model, embryo implantation rate was decreased when the mice were given oxytocin.
In mice, NAC was confirmed to support embryo implantation. In the animal model, embryo implantation rate was decreased when the mice were given oxytocin.

[4] = system: RGD recognition sites on integrins; details: cited from earlier work
[5] = system: Isolated uteri from virgin Wistar rats; assay: isolated organ bath study of uterine contractions; design: species or system rat
Description: Animals were kept at 22° C., housed 3 per cage and fed ad libitum. Isolated uteri from virgin Wistar rats (200-280 g) in estrous, which was determined by examination of a daily vaginal smear, were used.
Protamine sulphate (PS) and NAC were dissolved in pure water.
All rats were sacrificed by cervical dislocation. The uterine horns were excised, carefully cleaned and mounted vertically in a 10 ml volume organ bath containing De Jalon's solution (NaCl 154 mM, KCl 5.6 mM, CaCl2×2H2O 0.41 mM, NaHCO 2 5.9 mM and glucose 2.8 mM), under 1 g tension, aerated with 95% oxygen and 5% carbon dioxide at 37° C. […] After 10 min increasing concentrations of PS were added until the total cessation of contractions was observed.
Myometrial tension was recorded isometrically with an organ bath and transducer.
Effects of treatments on uterine contractions were calculated as percentages for control, untreated and contracting conditions. Each data value is expressed as the mean±SEM. differences between groups were analyzed by two-way ANOVA. EC50 values were compared using one-way ANOVA

CC(=O)[C@H]1CC[C@H]2[C@@H]3CCC4=CC(=O)CC[C@]4(C)[C@H]3CC[C@]12C [Progesterone]
effect on pregnancy rates [1]: no benefit

CCOc1ccc(C[C@H]2NC(=O)CCSSC[C@@H](C(=O)N3CCC[C@H]3C(=O)N[C@@H](CCCN)C(=O)NCC(N)=O)NC(=O)[C@H](CC(N)=O)NC(=O)[C@H]([C@@H](C)O)NC(=O)[C@H]([C@@H](C)CC)NC2=O)cc1 [atosiban] ([Mpa][dY](Et)ITNCP[Orn]G-NH2; disulfide 1-6)
Implantation rates per embryo transferred ([2]; total i.v. dose 37.5 mg before and up to 2 h after embryo transfer, placebo 12.6%): 20.4% | early miscarriages ([2]; total i.v. dose 37.5 mg, placebo 24.4%): 16.7% | clinical pregnancy rates per cycle ([2]; total i.v. dose 37.5 mg, placebo 28.9%): 46.7%

CC[C@H](C)[C@@H]1NC(=O)[C@H](Cc2ccc(O)cc2)NC(=O)[C@@H](N)CSSC[C@@H](C(=O)N2CCC[C@H]2C(=O)N[C@@H](CC(C)C)C(=O)NCC(N)=O)NC(=O)[C@H](CC(N)=O)NC(=O)[C@H](CCC(N)=O)NC1=O [oxytocin]
embryo implantation rate [3]: decreased

CN1C(C(=O)Nc2ccccn2)=C(O)c2ccccc2S1(=O)=O [piroxicam]
effect on pregnancy rates [1]: positive effect

CC(NCCc1ccc(O)cc1)C(O)c1ccc(O)cc1 (stereo not drawn) [ritodrine]
effect on pregnancy rates [1]: positive effect

Arg-Gly-Asp (RGD) peptide [RGD peptide]
rat blastocyst attachment to Ishikawa cells ([4]; either the blastocysts or the Ishikawa cells pre-incubated): significant reduction in blastocyst attachment | rat blastocyst attachment to Ishikawa cells ([4]; pre-treatment of both blastocysts and Ishikawa cells): inhibited blastocyst attachment, but not completely

Protamine sulphate [PS]
relaxation of uterine contractions ([5]; calcium ion-induced uterine contractions): dose-dependent relaxation | relaxation of uterine contractions ([5]; spontaneously active uteri): dose-dependent relaxation | EC50 for PS-treated uteri ([5]; spontaneously active vs calcium ion-induced uteri): lower in spontaneously active uteri than in calcium ion-induced uteri
